Here are results for 3 molecules from paper PMC9412362, “Design, Synthesis, and Characterization of Novel Coordination Compounds of Benzimidazole Derivatives with Cadmium” (Pharmaceutics, 2022).

Converted amounts (≈) assume the structure as drawn. Like-named read-outs stand apart in the source and are kept apart here.

The subject of one test is T98G cells. As to the kind of experiment: MTT cytotoxicity assay, glioblastoma T98G. Format: cell-based, human. Particulars: Homo sapiens, MTT assay after 24 h of incubation, read-out: IC50 ± SD, T98G. As for the experimental part: (§1) Samples of complexes (about 20 mg) were digested in a concentrated mixture of 36% HCl (1 mL) and 65% HNO3 (6 mL). The contents of Cd (II) in the solid complexes were determined with an F-AAS spectrometer (Analytik Jena, contraAA 300, Jena, Germany) with a continuous source of light and using an air/acetylene flame (Analytik Jena, contraAA 300). Absorbances were measured at the analytical spectral lines at 228.8 nm for Cd (II). The limit of quantification was 0.004 mg/L for Cd (II). The solid samples were decomposed using an Anton Paar Multiwave 3000 (Graz, Austria) closed-system instrument. Mineralization was carried out for 45 min at 240 °C under a pressure of 60 bar. The contents of carbon, hydrogen, and nitrogen were determined with an instrument from Vario Micro Company Elementar Analysensysteme GmbH (Langenselbold, Germany). FTIR spectra were recorded with an IR Tracer-100 Schimadzu Spectrometer (4000–600 cm^−1 with an accuracy of recording of 1 cm^−1, Kyoto, Japan) using KBr pellets. The thermal analyses were carried out with a Netzsch STA 449 F1 Jupiter thermoanalyzer (Netzsch-Geratebau GmbH, Selb, Germany) coupled with a Netzsch Aeolos Quadro QMS 403 mass spectrometer (Netzsch-Geratebau GmbH, Selb, Germany). The samples were heated up to 1000 °C in corundum crucibles with a heating rate of 10 °C/min in an atmosphere of synthetic air (20% O2, 80% N2). The cytotoxic effects of the compounds were evaluated using glioblastoma (T98G), neuroblastoma (SK-N-AS), and lung adenocarcinoma (A549) cell lines and normal human skin fibroblasts (CCD-1059Sk). T98G and SK-N-AS cells were cultured in high-glucose DMEM and A549 cells were cultured in DMEM/F12, while CCD-1059Sk cells were cultured in MEM. All media were supplemented with 10% (FBS), 100 U/mL of penicillin, and […] of streptomycin (PenStrep). Cells were incubated at 37 °C in a humidified atmosphere of 5% CO2. Stock solutions were prepared by dissolving the compounds in sterile dimethyl sulfoxide (DMSO) to obtain a concentration of 50 mg/mL. The cells were seeded into sterile 96-well plates (Nunc) at a density of 1 × 10^5 cells/mL. After 24 h of incubation, the medium was removed from each well, and then the cells were incubated for the next 24 h with different concentrations of the tested compounds (1–100 µg/mL) in their respective media containing 2% FBS. The cytotoxicity of the compounds was evaluated using an MTT assay, which was based on the conversion of 3-(4,5-dimethylthiazol-2-yl)-2,5-diphenyltetrazolium bromide (MTT) into dark-blue formazan crystals. Briefly, after 24 h of incubation of the cells with varying concentrations of the tested compounds, all culture media were removed from the plates. The cells were washed with PBS, and then 100 µL of medium containing 10% MTT solution (5 mg/mL) was added to each well. After 3 h of incubation, 100 µL (per well) of 10% SDS buffer solution was added to solubilize the formazan crystals. After overnight incubation, the absorbance was measured at 570 nm using a microplate reader (Epoch, BioTek Instruments). Experiments were repeated twice, and the measurements in each experiment were run in triplicate. The viability of the investigated cells was expressed as the percentage of the viability of the untreated cells, and the results were transformed into IC50 values (expressed as mean ± SD). The complexes were screened for antibacterial and antifungal activity by using the micro-dilution broth method with Mueller–Hinton broth for the growth of bacteria or Mueller–Hinton broth with 2% glucose for the growth of fungi. […]
Background: Formazan colour is commonly taken as a measure of viable cells.

The subject of the next test is A549 cells. As to the kind of experiment: MTT cytotoxicity assay, lung adenocarcinoma A549. Type of test: cell-based, human. Particulars: Homo sapiens; lung carcinoma A549, MTT assay after 24 h of incubation; read-out: IC50 ± SD, A549. On the procedure:
as §1

In a further test the test system is CCD-1059Sk cells. As to the kind of experiment: MTT cytotoxicity assay, normal human skin fibroblasts CCD-1059Sk. Format: cell-based. Particulars: normal human fibroblasts CCD-1059Sk, MTT assay after 24 h of incubation; read-out: IC50 ± SD, CCD-1059-Sk. On the procedure:
as §1

For a further test, the system named is SK-N-AS cells. As to the kind of experiment: MTT cytotoxicity assay, neuroblastoma SK-N-AS. Type of test: cell-based, human. Particulars: MTT assay after 24 h of incubation, read-out: IC50 ± SD, SK-N-AS. As for the experimental part: as §1
Test [1] deals with S. epidermidis ATCC 12228. As to the kind of experiment: MIC, micro-dilution broth method. Format: cell-based, Staphylococcus epidermidis. Particulars: Staphylococcus epidermidis. On the procedure: as §1
(Dilution methods test growth across graded concentrations, often in twofold steps.)

Another test relates to P. aeruginosa ATCC 9027. As to the kind of experiment: MIC, micro-dilution broth method. Particulars: Pseudomonas aeruginosa, ATCC9027, Gram-negative bacteria. Type of test: cell-based, Pseudomonas aeruginosa. As for the experimental part:
as §1

The test system of the next test is M. luteus ATCC 10240. As to the kind of experiment: MIC, micro-dilution broth method. Type of test: cell-based, Micrococcus luteus. Particulars: Micrococcus luteus. On the procedure: as §1
The next test relates to K. pneumoniae ATCC 13883. As to the kind of experiment: MIC, micro-dilution broth method. Type of test: cell-based, Klebsiella pneumoniae. Particulars: Klebsiella pneumoniae, ATCC13883, Gram-negative bacteria. As for the experimental part:
as §1

The test system of test [2] is C. parapsilosis ATCC 22019. Put plainly: MIC, micro-dilution broth method. Format: cell-based, Candida parapsilosis. Particulars: Lodderomyces parapsilosis, ATCC22019; Yeasts; micro-dilution broth with 2% glucose. As for the experimental part: as §1
A further test relates to E. coli ATCC 25922. As to the kind of experiment: MIC, micro-dilution broth method. Particulars: Escherichia coli, ATCC25922, Gram-negative bacteria. Format: cell-based, Escherichia coli. On the procedure: as §1
Another test has as its system E. faecalis ATCC 29212. As to the kind of experiment: MIC, micro-dilution broth method. Format: cell-based, Enterococcus faecalis. Particulars: Enterococcus faecalis. As for the experimental part: as §1
The subject of another test is B. subtilis ATCC 6633. Put plainly: MIC, micro-dilution broth method. Type of test: cell-based, Bacillus subtilis. Particulars: Bacillus subtilis. As for the experimental part: as §1
The subject of a further test is S. aureus ATCC 25923. Put plainly: MIC, micro-dilution broth method. Format: cell-based, Staphylococcus aureus. Particulars: Staphylococcus aureus. As for the experimental part: as §1
Another test relates to C. glabrata ATCC 2091. As to the kind of experiment: MIC, micro-dilution broth method. Particulars: Nakaseomyces glabratus, ATCC2091, read-out: MIC, C. glabrata ATCC 2091. Format: cell-based. On the procedure:
as §1

A further test has as its system C. albicans ATCC 102231. Put plainly: MIC, micro-dilution broth method. Type of test: cell-based, Candida albicans. Particulars: Candida albicans, ATCC102231, read-out: MIC, C. albicans ATCC 102231. On the procedure:
as §1

Test [3] relates to S. typhimurium ATCC 14028. As to the kind of experiment: MIC, micro-dilution broth method. Format: cell-based, Salmonella Typhimurium. Particulars: Salmonella enterica, Gram-negative bacteria. On the procedure:
as §1

In the next test the test system is P. mirabilis ATCC 12453. As to the kind of experiment: MIC, micro-dilution broth method. Format: cell-based, Proteus mirabilis. Particulars: Proteus mirabilis, ATCC12453, Gram-negative bacteria. On the procedure:
as §1

The test system of a further test is B. cereus ATCC 10876. As to the kind of experiment: MIC, micro-dilution broth method. Type of test: cell-based, Bacillus cereus. Particulars: Bacillus cereus. As for the experimental part: as §1

The IC50 is the point on the concentration scale where inhibition reaches its midpoint. With `COc1cc([C@@H]2c3cc4c(cc3[C@@H](O[C@@H]3O[C@@H]5CO[C@@H](C)O[C@H]5[C@H](O)[C@H]3O)[C@H]3COC(=O)[C@H]23)OCO4)cc(OC)c1O` [Etoposide, reference compound], the half-maximal inhibitory concentration (IC50) with T98G cells was above 170 µM; in the test with A549 cells it was above 170 µM; with CCD-1059Sk cells it was above 170 µM; in the test with SK-N-AS cells (Homo sapiens, SK-N-AS, 24 h), 115 µM; in the test on SK-N-AS cells it was 115 ± 3.5 µM.

One may read the MIC as the lowest concentration that inhibits growth of the organism. Consider `c1cc(-c2nc3ccncc3[nH]2)ccn1` [L1], for which the IC50 is 210 ± 12 µM in the test on T98G cells; above 509 µM in the test with A549 cells; above 509 µM in the test with CCD-1059Sk cells; above 509 µM in the test on SK-N-AS cells (Homo sapiens, SK-N-AS, 24 h). Also, the MIC in [1] (ATCC12228, Gram-positive bacteria, micro-dilution broth, read-out: MIC, S. epidermidis ATCC 12228) was above 1000 µg/mL; against P. aeruginosa ATCC 9027, above 1000 µg/mL; in the test with M. luteus ATCC 10240 (ATCC10240, Gram-positive bacteria, micro-dilution broth, read-out: MIC, M. luteus ATCC 10240), 500 µg/mL (≈ 2550 µM); against K. pneumoniae ATCC 13883, above 1000 µg/mL; in test [2] it was above 1000 µg/mL; against E. coli ATCC 25922 it was above 1000 µg/mL. The MIC was above 1000 µg/mL with E. faecalis ATCC 29212 (ATCC29212, Gram-positive bacteria, micro-dilution broth, read-out: MIC, E. faecalis ATCC 29212); above 1000 µg/mL with B. subtilis ATCC 6633 (ATCC6633, Gram-positive bacteria, micro-dilution broth, read-out: MIC, B. subtilis ATCC 6633); above 1000 µg/mL in the test on S. aureus ATCC 25923 (ATCC25923, Gram-positive bacteria, micro-dilution broth, read-out: MIC, S. aureus ATCC 25923); above 1000 µg/mL in the test with C. glabrata ATCC 2091; above 1000 µg/mL in the test with C. albicans ATCC 102231; above 1000 µg/mL in [3]. The minimal inhibitory concentration (MIC) against P. mirabilis ATCC 12453 is above 1000 µg/mL; in the test on B. cereus ATCC 10876 (ATCC10876, Gram-positive bacteria, micro-dilution broth, read-out: MIC, B. cereus ATCC 10876), above 1000 µg/mL.

With `CN[C@H](CC(C)C)C(=O)N[C@H]1C(=O)N[C@@H](CC(N)=O)C(=O)N[C@H]2C(=O)N[C@H]3C(=O)N[C@H](C(=O)N[C@H](C(=O)O)c4cc(O)cc(O)c4-c4cc3ccc4O)[C@H](O)c3ccc(c(Cl)c3)Oc3cc2cc(c3O[C@@H]2O[C@H](CO)[C@@H](O)[C@H](O)[C@H]2O[C@H]2C[C@](C)(N)[C@H](O)[C@H](C)O2)Oc2ccc(cc2Cl)[C@H]1O` [Van, Vancomycin, reference compound], the MIC in test [1] (ATCC12228, read-out: MIC, S. epidermidis ATCC 12228) came out at 0.98 µg/mL (≈ 0.676 µM); with M. luteus ATCC 10240 (ATCC10240, read-out: MIC, M. luteus ATCC 10240), 0.12 µg/mL (≈ 0.0828 µM); with E. faecalis ATCC 29212 (ATCC29212, read-out: MIC, E. faecalis ATCC 29212), 1.95 µg/mL (≈ 1.35 µM); in the test on B. subtilis ATCC 6633 (ATCC6633, read-out: MIC, B. subtilis ATCC 6633) it was 0.24 µg/mL (≈ 0.166 µM); in the test with S. aureus ATCC 25923 (ATCC25923, read-out: MIC, S. aureus ATCC 25923) it was 0.98 µg/mL (≈ 0.676 µM); in the test on B. cereus ATCC 10876 (ATCC10876, read-out: MIC, B. cereus ATCC 10876), 0.98 µg/mL (≈ 0.676 µM).
